Data: patent US7465725B2, “Pyrimidine compounds” (Synta Pharmaceuticals Corp., priority 2001, dated 2008)

Legend:
[1] = test system: CD4+ CD45Rbhigh T cell-reconstituted colitis; experiment: CD4+ CD45Rbhigh T cell-reconstituted SCID colitis model mice; assay type: in vivo, C.B-17 SCID mice
Method: Treatment of Crohn's disease in CD4^+ CD45Rb^high T cell-reconstituted SCID colitis model mice: Spleen cells were prepared from normal female BALB/c mice. For cell purification, the following anti-mouse antibodies were used to label non-CD4^+ T cells: B220 (RA3-6B2), CD11b (M1/70), and CD8α (53-6.72). All antibodies were obtained from BioSource (Camarillo, Calif.). M450 anti-rat IgG-coated magnetic beads (Dynal, Oslo, Norway) were used to bind the antibodies and negative selection was accomplished using an MPC-1 magnetic concentrator. The enriched CD4^+ cells were then labeled for cell sorting with FITC-conjugated CD45RB (16A, Pharmingen, San Diego, Calif.) and PE-conjugated CD4 (CT-CD4, Caltag, Burlingame, Calif.). CD4^+ CD45Rb^high cells were operationally defined as the upper 40% of CD45Rb-staining CD4^+ cells and sorted under sterile conditions by flow cytometry. Harvested cells were resuspended at 4×10^6/mL in PBS and injected 100 μL intraperitoneally into female C.B-17 SCID mice. Pyrimidine compounds of this invention (e.g., Compound 12) and/or vehicle was orally administered once a day, 5 days per week, starting the day following the transfer. The transplanted SCID mice were weighed weekly and their clinical condition was monitored. Colon tissue samples were fixed in 10% buffered formalin and embedded in paraffin. Sections (4 μm) collected from ascending, transverse, and descending colon were cut and stained with hematoxylin and eosin. The severity of colitis was determined based on histological examination of the distal colon sections, whereby the extent of colonic inflammation was graded on a scale of 0-3 in each of four criteria: crypt elongation, cell infiltration, depletion of goblet cells, and the number of crypt abscesses. LP lymphocytes were isolated from freshly obtained colonic specimens. After removal of […] patches, the colon was washed in Ca/Mg-free HBSS, cut into 0.5 cm pieces and incubated twice in HBSS containing EDTA (0.75 mM), DTT (1 mM), and antibiotics (amphotericin 2.5 μg/mL, gentamicin 50 μg/mL from Sigma) at 37° C. for 15 min. Next, the tissue was-digested further in RPMI containing 0.5 mg/mL collagenase D, 0.01 mg/mL DNase I (Boehringer Manheim), and antibiotics at 37° C. LP cells were then layered on a 40-100% Percoll gradient (Pharmacia, Uppsala, Sweden), and lymphocyte-enriched populations were isolated from the cells at the 40-100% interface. To measure cytokine production, 48-well plates were coated with 10 μg/mL murine anti-CD3ε antibody (145-2C11) in carbonate buffer (PH 9.6) overnight at 4° C. […] Murine IFNγ was measured using an ELISA kit from Endogen (Cambridge, Mass.), according to the manufacturer's instructions.

[2] = test system: DNBS-induced distal colitis; experiment: Dinitrobenzene sulfonic acid-induced inflammatory bowel syndrome model rats; assay type: in vivo, Wistar derived rats; conditions: oral, 24 and 2 h before DNBS, then daily for 5 days; relative to vehicle+DNBS net increase
Method: Treatment of Crohn's disease in dinitrobenzene suifonic acid-induced inflammatory bowel syndrome model rats: Wistar derived male or female rats weighing 200±20 g and fasted for 24 hours were used. Distal colitis was induced by intra-colonic instillation of 2,4-dinitrobenzene sulfonic acid (DNBS, 25 mg in 0.5 mL ethanol 30%) after which air (2 mL) was gently injected through the cannula to ensure that the solution remained in the colon. A test compound and/or vehicle was administered orally 24 and 2 hours before DNBS instillation and then daily for 5 days. One control group was similarly treated with vehicle alone while the other is treated with vehicle plus DNBS. The animals were sacrificed 24 hours after the final dose of test compound administration and each colon was removed and weighed. Colon-to-body weight ratio was then calculated for each animal according to the formula: Colon (g)/BW×100. The “Net” increase in ratio of Vehicle-control+DNBS group relative to Vehicle-control group was used as a base for comparison with test substance treated groups and expressed as “% Deduction.” Pyriridine compounds of this invention (e.g., Compound 12) reproducibly had about 30% deduction. A 30% or more reduction in colon-to-body weight ratio, relative to the vehicle treated eontrol group, was considered significant.

adjuvant arthritis = experiment: Treatment of adjuvant arthritis in rats; assay type: in vivo, female Lewis rats; conditions: oral, once a day for 12 days, dose-dependent

## Cc1cccc(C=NNc2cc(N3CCOCC3)nc(OCCc3ccccn3)n2)c1 [Compound 12, N-(3-methyl-benzylidene)-N′-[6-morpholin-4-yl-2-(2-pyridin-2-yl-ethoxy)-pyrimidin-4-yl]-hydrazine]
[1]; ex vivo LP cells from treated mice, anti-CD3 and anti-CD28 antibody, 48 h, ELISA
  IFNγ production by LP cells: greatly diminished the production
[1]; oral, dose of 10 mg/kg
  colonic inflammation (histological analysis), suppressive effect: substantial reduction
[1]; oral, once a day, 5 days per week, versus vehicle control
  colonic inflammation (histological analysis): reduced colonic inflammation
[1]; oral, consistent with histological score
  colon-to-body weight ratio: attenuation
[2]
  % Deduction (colon-to-body weight ratio): about 30%
Adjuvant arthritis
  development of polyarthritis: delayed the development of polyarthritis
Adjuvant arthritis; repeated four times
  arthritic score: reduced the arthritic score
